The values that follow are results of earlier work, collected in patent publication US6465497B2, “Arylthiazolidinedione derivatives” (Merck & Co., Inc., priority 1999, dated 2002).

Molecules are shown by their SMILES.

Data set [1] deals with ob/ob mice. The settings on record: Cantello et al, J. Med. Chem. 1994.
Data set [2] has as its target T1, PPARγ (Homo sapiens, UniProt P37231).
T1 sequence (P37231 1-505): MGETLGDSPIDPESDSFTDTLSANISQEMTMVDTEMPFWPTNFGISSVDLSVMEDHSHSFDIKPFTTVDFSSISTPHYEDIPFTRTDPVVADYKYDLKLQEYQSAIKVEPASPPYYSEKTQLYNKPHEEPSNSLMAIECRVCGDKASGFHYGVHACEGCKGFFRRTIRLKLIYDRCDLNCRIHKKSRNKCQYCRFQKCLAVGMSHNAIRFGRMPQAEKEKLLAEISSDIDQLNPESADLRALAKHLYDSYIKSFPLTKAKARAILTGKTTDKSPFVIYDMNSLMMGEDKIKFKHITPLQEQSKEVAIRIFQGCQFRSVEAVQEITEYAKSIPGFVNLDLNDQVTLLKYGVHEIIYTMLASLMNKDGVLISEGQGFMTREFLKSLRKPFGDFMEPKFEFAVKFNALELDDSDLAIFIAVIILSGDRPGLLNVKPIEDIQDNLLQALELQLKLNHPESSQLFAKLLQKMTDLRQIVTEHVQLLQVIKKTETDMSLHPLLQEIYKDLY
The note with it: subsequent studies; Willson et al, J. Med. Chem. 1996.

The test system of data set [3] is diabetic mouse model. The settings on record: Sohda et al, Chem. Pharm. Bull. 1982.

For the compound `CN(CCOc1ccc(C2SC(=O)NC2=O)cc1)c1nc2ccccc2o1` (stereo not drawn) [(1), 5-[4-[2-(2-benzoxazolylmethylamino)ethoxy]phenyl]-2,4-thiazolidinedione], in data set [1], the antihyperglycemic activity entry was “no antihyperglycemic activity”. Also, the “amounts required for PPARγ activation” value in data set [2] was “relatively high amounts”.

On to `O=C1NC(=O)C(c2ccc(OCCc3ccccc3)cc2)S1` (stereo not drawn) [(2), 5-[4-(phenylethoxy)phenyl]-2,4-thiazolidinedione], for which the antihyperglycemic effect result in data set [3] is listed as “no antihyperglycemic effect”.
